We go through 29 compounds from patent publication US7368471B2, “Substituted indole acid derivatives as inhibitors of plasminogen activator inhibitor-1 (PAI-1)” (Wyeth, priority 2001, dated 2008).

Read-outs that look alike come from different tables or passages of the source.

The target of data set [1] is T1, recombinant human plasminogen activator inhibitor-1 (PAI-1) (Homo sapiens, UniProt P05121).
T1 construct: purchased Molecular Innovations, Royal Oak, Mich
Nature of the data set: Primary Screen for the PAI-1 Inhibition (residual tPA activity, Spectrozyme-tPA chromogenic substrate). The class given is biochemical. Conditions: 25 μM test compound. As for the experimental part:
Primary Screen for the PAI-1 Inhibition
Test compounds are dissolved in DMSO at a final concentration of 10 mM, then diluted 100× in physiologic buffer. The inhibitory assay is initiated by the addition of the test compound (1-100 μM final concentration, maximum DMSO concentration of 0.2%) in a pH 6.6 buffer containing 140 nM recombinant human plasminogen activator inhibitor-1 (PAI-1; Molecular Innovations, Royal Oak, Mich.). Following a 1 hour incubation at room temperature, 70 nM of recombinant human tissue plasminogen activator (tPA) is added, and the combination of the test compound, PAI-1 and tPA is incubated for an additional 30 minutes. Following the second incubation, Spectrozyme-tPA (American Diagnostica, Greenwich, Conn.), a chromogenic substrate for tPA, is added and absorbance read at 405 nm at 0 and 60 minutes. Relative PAI-1 inhibition is equal to the residual tPA activity in the presence of the test compound and PAI-1. Control treatments include the complete inhibition of tPA by PAI-1 at the molar ratio employed (2:1), and the absence of any effect of the test compound on tPA alone.

The next data set has as its target human PAI-1 (Homo sapiens, UniProt P05121). The data set can be described thus: Antibody Assay for Determining IC50 of Inhibition of PAI-1 (active PAI-1 bound to tPA-coated plate, 33B8 antibody). The class given is binding. As for the experimental part: Assay for Determining IC50 of Inhibition of PAI-1
This assay is based upon the non-SDS dissociable interaction between tPA and active PAI-1. Assay plates are initially coated with human tPA (10 μg/ml). Test compounds are dissolved in DMSO at 10 mM, then diluted with physiologic buffer (pH 7.5) to a final concentration of 1-50 μM. Test compounds are incubated with human PAI-1 (50 ng/ml) for 15 minutes at room temperature. The tPA-coated plate is washed with a solution of 0.05% Tween 20 and 0.1% BSA, then the plate is blocked with a solution of 3% BSA. […] The plate is again washed, and a solution of goat anti-mouse IgG-alkaline phosphatase conjugate is added at a 1:50,000 dilution in goat serum. The plate is incubated 30 minutes at room temperature, washed, and a solution of alkaline phosphatase substrate is added. The plate is incubated 45 minutes at room temperature, and color development is determined at OD405nm. […] Results are analyzed using a logarithmic best-fit equation. The assay sensitivity is 5 ng/ml of human PAI-1 as determined from a standard curve ranging from 0-100 ng/ml.

Where [2] appears, read: footnote a: determined by the Antibody Assay, read-out: IC50.

T1 sequence (P05121 24-402): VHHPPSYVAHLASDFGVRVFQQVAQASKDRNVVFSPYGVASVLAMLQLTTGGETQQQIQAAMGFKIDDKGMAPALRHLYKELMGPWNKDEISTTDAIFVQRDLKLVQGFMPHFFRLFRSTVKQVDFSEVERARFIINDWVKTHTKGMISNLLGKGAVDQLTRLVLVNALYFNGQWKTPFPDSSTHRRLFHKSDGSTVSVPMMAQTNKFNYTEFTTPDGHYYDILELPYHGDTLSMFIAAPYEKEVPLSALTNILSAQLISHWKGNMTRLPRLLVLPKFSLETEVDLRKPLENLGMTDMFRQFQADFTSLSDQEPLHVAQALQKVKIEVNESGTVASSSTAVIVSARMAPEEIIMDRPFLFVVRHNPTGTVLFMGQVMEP
human PAI-1, sequence (P05121 24-402): as above

For orientation: inhibition means the percentage by which the read-out fell short of the control. As usually defined, the melting point is the temperature, or range, at which the solid turns liquid. For the compound `Cn1cc(C(=O)C(=O)O)c2ccc(-c3ccc(OC(F)(F)F)cc3)cc21` [Example 1, {1-Methyl-6-[4-(trifluoromethoxy)phenyl]-1H-indol-3-yl}(oxo)acetic acid], the melting point was 233 to 235 °C (dec.). Further, in data set [1], the inhibition at 25 µM amounted to 15%.

`CCn1cc(C(=O)C(=O)O)c2ccc(-c3ccc(OC(F)(F)F)cc3)cc21` [Example 3, {1-Ethyl-6-[4-(trifluoromethoxy)phenyl]-1H-indol-3-yl}(oxo)acetic acid] gave a melting point of 204 to 205 °C. Moreover, the inhibition at 25 µM in data set [1] was determined as 24%.

`CCn1cc(C(=O)C(=O)O)c2ccc(-c3ccc(C(F)(F)F)cc3)cc21` [Example 4, {1-Ethyl-6-[4-(trifluoromethyl)phenyl]-1H-indol-3-yl}(oxo)acetic acid] gave a melting point of 247 to 248 °C. Besides, the inhibition at 25 µM in data set [1] stood at 16%.

For orientation: IC50 means the concentration that gives 50% inhibition. Consider `O=C(O)C(=O)c1cn(Cc2ccccc2)c2cc(-c3ccc(OC(F)(F)F)cc3)ccc12` [Example 5, {1-Benzyl-6-[4-(trifluoromethoxy)phenyl]-1H-indol-3-yl}(oxo)acetic acid], for which the IC50 on human PAI-1 worked out at 17.3 µM.

Regarding `O=C(O)C(=O)c1cn(Cc2ccccc2)c2cc(-c3ccc(C(F)(F)F)cc3)ccc12` [Example 6, {1-Benzyl-6-[4-(trifluoromethyl)phenyl]-1H-indol-3-yl}(oxo)acetic acid], the melting point was 223 to 224 °C (dec.). In data set [1], the inhibition at 25 µM came to 27%.

Regarding `CC(C)(C)c1ccc(Cn2cc(C(=O)C(=O)O)c3ccc(-c4ccc(C(F)(F)F)cc4)cc32)cc1` [Example 7, {1-[4-(tert-Butyl)benzyl]-6-[4-(trifluoromethyl)phenyl]-1H-indol-3-yl}(oxo)acetic acid], the melting point is 205 to 206 °C (dec.). The inhibition at 25 µM in data set [1] amounted to 26%.

On to `O=C(O)C(=O)c1cn(Cc2ccccc2)c2ccc(-c3ccc(C(F)(F)F)cc3)cc12` [Example 9, {1-Benzyl-5-[4-(trifluoromethyl)phenyl]-1H-indol-3-yl}(oxo)acetic acid], for which the melting point is 201 to 202 °C (dec.). The inhibition at 25 µM in data set [1] turned out to be 40%.

In the case of `Cn1cc(C(=O)C(=O)O)c2ccc(-c3ccc(C(C)(C)C)cc3)cc21` [Example 10, {6-[4-(tert-Butyl)phenyl]-1-methyl-1H-indol-3-yl}(oxo)acetic acid], the melting point was 201 to 202 °C (dec.). Also, the inhibition at 25 µM in data set [1] came to 33%.

`CC(=O)c1ccc(-c2ccc3c(c2)c(C(=O)C(=O)O)cn3Cc2ccccc2)cc1` [Example 11, [5-(4-Acetylphenyl)-1-benzyl-1H-indol-3-yl](oxo)acetic acid]: the melting point is 213 to 214 °C (dec.). For the same compound, the inhibition at 25 µM in data set [1] was found to be 19%.

Regarding `O=C(O)C(=O)c1cn(Cc2ccccc2)c2cccc(-c3ccc(C(F)(F)F)cc3)c12` [Example 13, {1-Benzyl-4-[4-(trifluoromethyl)phenyl]-1H-indol-3-yl}(oxo)acetic acid], the melting point was in the range of 183 to 184 °C. For the same compound, in data set [1], the inhibition at 25 µM stood at 27%.

On to `CC(C)(C)c1ccc(-c2ccc3c(c2)c(C(=O)C(=O)O)cn3Cc2ccccc2)cc1` [Example 14, {1-Benzyl-5-[4-(tert-butyl)phenyl]-1H-indol-3-yl}(oxo)acetic acid], for which the melting point is 210 to 211 °C (dec.). Also, in data set [1], the inhibition at 25 µM was determined as 55%.

In the case of `O=C(O)C(=O)c1cn(Cc2ccccc2)c2ccc(-c3cc(C(F)(F)F)cc(C(F)(F)F)c3)cc12` [Example 16, {1-Benzyl-5-[3,5-bis(trifluoromethyl)phenyl]-1H-indol-3-yl}(oxo)acetic acid], the melting point is 206 to 207 °C. For the same compound, the IC50 at human PAI-1 (setting [2]) amounted to 11.5 µM.

With `O=C(O)C(=O)c1cn(Cc2ccccc2)c2c(-c3ccc(OC(F)(F)F)cc3)cccc12` [Example 17, {1-Benzyl-7-[4-(trifluoromethoxy)phenyl]-1H-indol-3-yl}(oxo)acetic acid], on human PAI-1 (setting [2]), the IC50 was 10 µM.

`O=C(O)C(=O)c1cn(Cc2ccccc2)c2cc(-c3cccc(Cl)c3)ccc12` [Example 21, [1-Benzyl-6-(3-chlorophenyl)-1H-indol-3-yl](oxo)acetic acid]: the melting point fell in the range of 186 to 188 °C. Moreover, the half-inhibitory concentration (IC50) on human PAI-1 (setting [2]) came out at 19.9 µM.

Take `O=C(O)C(=O)c1cn(Cc2ccccc2)c2ccc(-c3cccc(OC(F)(F)F)c3)cc12` [Example 22, {1-Benzyl-5-[3-(trifluoromethoxy)phenyl]-1H-indol-3-yl}(oxo)acetic acid]: on human PAI-1 (setting [2]), the half-inhibitory concentration (IC50) was determined as 9.7 µM.

With `O=C(O)C(=O)c1cn(Cc2ccccc2)c2ccc(-c3ccccc3)cc12` [Example 24, (1-Benzyl-5-phenyl-1H-indol-3-yl)(oxo)acetic acid], the melting point was 193 to 195 °C (dec.). Besides, the inhibition at 25 µM in data set [1] was 47%.

Compound `O=C(O)C(=O)c1cn(Cc2ccc(F)cc2)c2ccc(-c3ccccc3)cc12` [Example 28, [1-(4-Fluorobenzyl)-5-phenyl-1H-indol-3-yl](oxo)acetic acid] returned a melting point of 165 to 166 °C. In addition, on human PAI-1 (setting [2]), the IC50 came to 35 µM.

In the case of `CCCCn1cc(C(=O)C(=O)O)c2cc(-c3ccc(Cl)cc3)ccc21` [Example 29, [1-Butyl-5-(4-chlorophenyl)-1H-indol-3-yl](oxo)acetic acid], the melting point fell in the range of 136 to 137 °C. At human PAI-1, this compound yielded a half-maximal inhibitory concentration (IC50) of 12.5 µM.

In turn, `CCCCn1cc(C(=O)C(=O)O)c2cc(-c3cccc(OC)c3)ccc21` [Example 31, [1-Butyl-5-(3-methoxyphenyl)-1H-indol-3-yl](oxo)acetic acid] returned a melting point of 108 to 109 °C. In addition, the inhibition at 25 µM in data set [1] was found to be 32%.

On to `CCCCn1cc(C(=O)C(=O)O)c2cc(-c3ccc(OC)cc3)ccc21` [Example 32, [1-Butyl-5-(4-methoxyphenyl)-1H-indol-3-yl](oxo)acetic acid], for which the melting point lay within 172 to 173 °C. Further, the inhibition at 25 µM in data set [1] was 28%.

`CC(C)(C)c1ccc(Cn2cc(C(=O)C(=O)O)c3cc(-c4ccc(Cl)cc4)ccc32)cc1` [Example 38, [1-(4-tert-Butylbenzyl)-5-(4-chlorophenyl)-1H-indol-3-yl](oxo)acetic acid] returned a melting point of 183 to 184 °C. In addition, the inhibition at 25 µM in data set [1] is 14%.

In turn, `CC(=O)OCc1c(C(=O)C(=O)O)c2cc(-c3ccc(OC(F)(F)F)cc3)ccc2n1Cc1ccc(C)cc1` [Example 41, {2-[(Acetyloxy)methyl]-1-(4-methylbenzyl)-5-[4-(trifluoromethoxy)phenyl]-1H-indol-3-yl}(oxo)acetic acid] yielded a melting point of 79 to 80 °C. The inhibition at 25 µM in data set [1] came out at 13%.

In the case of `O=C(O)C(=O)c1cn(CC2CCCCC2)c2ccc(-c3cccc(Cl)c3)cc12` [Example 48, [5-(3-chlorophenyl)-1-(cyclohexylmethyl)-1H-indol-3-yl](oxo)acetic acid], the IC50 on human PAI-1 (setting [2]) stood at 13.3 µM.

For `O=C(O)C(=O)c1cn(CC2CCCCC2)c2ccc(-c3cccc(C(F)(F)F)c3)cc12` [Example 57, [5-(3-trifluoromethylphenyl)-1-(cyclohexylmethyl)-1H-indol-3-yl](oxo)acetic acid], the inhibition at 25 µM in data set [1] came out at 57%.

For `O=C(O)C(=O)c1cn(CCCC2CCCC2)c2ccc(-c3cccc(C(F)(F)F)c3)cc12` [Example 58, [5-(3-trifluoromethylphenyl)-1-(cyclopentylpropyl)-1H-indol-3-yl](oxo)acetic acid], the inhibition at 25 µM in data set [1] came out at 61%.

In the case of `COc1ccc(-c2ccc3c(c2)c(C(=O)C(=O)O)cn3CC2CCCCC2)cc1` [Example 59, [5-(4-methoxyphenyl)-1-(cyclohexylmethyl)-1H-indol-3-yl](oxo)acetic acid], in data set [1], the inhibition at 25 µM came out at 58%.

Take `Cn1cc(C(=O)O)c2ccc(-c3ccc(C(F)(F)F)cc3)cc21` [Example 60, 1-Methyl-6-(4-trifluoromethyl-phenyl)-1H-indole-3-carboxylic acid]: the melting point is 237 to 239 °C (dec.). In addition, in data set [1], the inhibition at 25 µM came to 39%.

On to `Cn1cc(C(=O)O)c2ccc(-c3ccc(C(C)(C)C)cc3)cc21` [Example 61, 6-(4-tert-Butyl-phenyl)-1-methyl-1H-indole-3-carboxylic acid], for which the melting point is 236 to 238 °C (dec.). Further, the inhibition at 25 µM in data set [1] was 28%.

On to “[5-(3-chlorophenyl)-1-(3-methylcyclopropyl)-1H-indol-3-yl](oxo)acetic acid [Example 47]”, for which the “% Inhibition @ 25 μM” value in data set [1] was 51%.
